Patent publication US8097650B2, “Method of treating a condition associated with phosphorylation of TASK-1” (The Trustees of Columbia University In The City of New York, priority 2005, dated 2012)

Key:
quiescent myocytes = assay: Spontaneous activity in quiescent mouse ventricular myocytes (current clamp); assay type: cell-based; conditions: C-PAF 185 nM
Experimental: Adult mice, 2-3 months old, were anesthetized with ketamine/xylazine and their hearts were removed according to protocols approved by the Columbia University-IACUC. Experiments were performed on single rod-shaped, quiescent ventricular myocytes dissociated using a standard retrograde collagenase perfusion (Kuznetsov V et al. (1995) Circ Res 76: 40-52) from hearts of mice that were either wild-type (WT), or PAFR knockouts (KO). Both WT and KO mice were bred on a C57/B16 background. The derivation of the KO mice has been described previously (Hoffman, B F et al.(1996) J Cardiovasc Electrophysiol 7:120-133).
Prior to electrophysiological measurements, cells were placed into the perfusion chamber and superfused at room temperature with Tyrode's buffer (in mM: NaCl, 140; KCl, 5.4; CaCl2 1; MgCl2, Hepes, 5; Glucose, 10; pH 7.4). The whole-cell patch clamp technique was used with pipettes having resistances of 1.5-3 MΩ (intracellular solution, in mM: aspartic acid, 130; KOH, 146; NaCl, 10; CaCl2, 2; EGTA, 5; Hepes, 10; MgATP, 2; pH 7.2). Solutions of C-PAF, the PAFR antagonist, CV-6209 (Biomol) and the PKC inhibitor, bisindolylmaleimide I (BIM I; Calbiochem) were prepared in water and diluted in Tyrode's before use. […] A custom-made fast perfusion device was used to exchange the solution around the cell within 1 s (DiFrancesco et al. (1986) J Physiol 377: 61-88).
Current and voltage protocols were generated using Clampex 7.0 software applied by means of an Axopatch 200B amplifier and a Digidata 1200 interface (Axon Instruments). During voltage clamp, steady state current traces were acquired at 500 Hz and final filtered at 10 Hz. During current clamp, membrane voltage was acquired at 5 KHz and filtered at 1 KHz. Ramp clamps were conducted by imposing a voltage ramp (14 mV/s) at a 500 Hz acquisition rate with 1 kHz filtering. Data were analyzed using pCLAMP 8.0 (Axon) and Origin 6.0 (Microcal) and are presented as mean±SEM. Steady-state current was determined by computer calculation of average current over a time period of at least 5 s. In all experiments, the n value indicates the number of myocytes studied, and represents pooled data from at least 2 (voltage clamp) or 3 (current clamp) animals. Student's t-test, one-way ANOVA and χ^2 tests were used; a value of p<0.05 was considered statistically significant. Records have been corrected for the junction potential, which was measured to be 9.8 mV.

mTRAAK = target: T1, mTRAAK (Mus musculus, UniProt O88454); assay: mTRAAK current in HEK cells (ramp clamp); assay type: cell-based; conditions: read-out: EC50 for activation of TRAAK current
T1 construct: expressed in transfected cells; host or cells: HEK cells
T1 sequence (O88454 1-398): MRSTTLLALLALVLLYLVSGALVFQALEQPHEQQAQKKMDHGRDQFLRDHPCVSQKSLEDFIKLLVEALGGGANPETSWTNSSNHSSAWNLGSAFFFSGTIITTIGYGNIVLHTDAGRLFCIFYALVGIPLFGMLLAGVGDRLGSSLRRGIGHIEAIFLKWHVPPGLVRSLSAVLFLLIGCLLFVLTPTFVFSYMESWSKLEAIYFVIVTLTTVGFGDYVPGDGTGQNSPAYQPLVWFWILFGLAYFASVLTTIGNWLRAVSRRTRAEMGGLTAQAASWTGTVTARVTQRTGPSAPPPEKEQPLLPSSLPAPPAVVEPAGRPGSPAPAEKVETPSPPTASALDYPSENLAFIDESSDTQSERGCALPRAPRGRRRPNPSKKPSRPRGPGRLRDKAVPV
Experimental: FIG. 21. CHO cells (hTREK-1, hTASK-1) or HEK cells (mTRAAK) were co-transfected with plasmids encoding one of the two pore domain channels and GFP using the GeneJammer reagent. After 48-60 h, the expressed current was measured using a ramp protocol while the cells were perfused with regular Tyrode's solution containing varying concentrations of ONO-RS-082 (range of concentration from 10 nM to 500 μM as noted in FIG. 21) until a steady state was reached. Each cell was exposed to only one concentration of drug. Panel A: TREK-1 current was determined using a ramp clamp, and the percent increase induced by ONO-RS-082 was measured at the most positive imposed voltage (n≧5). The EC50 for activation was around 3 μM and the basal and ONO-activated current densities are noted. Panel B: TASK-1 current was determined using a ramp clamp in Tyrode's solution at pH=8 and the percent increase induced by ONO-RS-082 was measured at the most positive imposed voltage (n≧4). The EC50 was around 8 μM and the basal and ONO-activated current densities are noted. Panel C: TRAAK current was determined using a ramp clamp, and the percent increase induced by ONO-RS-082 was measured at the most positive imposed voltage (n≧4). The EC50 was around 0.9 μM and the basal and ONO-activated current densities are noted.

Row | EC50 (mTRAAK) | SMILES | PAFR KO myocytes with no response (quiescent myocytes) | quiescent WT myocytes sensitive to C-PAF superfusion (quiescent myocytes) | initial delay of the effect (quiescent myocytes; quiescent WT myocytes)
1 | – | CCCCCCCCCCCCCCCCOC[C@H](COP(=O)([O-])OCC[N+](C)(C)C)OC(=O)NC [C-PAF, carbamyl-platelet-activating factor] | 7 of 9 | 11 of 11 | 96 ± 11 s
2 | ~900 nM | CCCCCc1ccc(C=CC(=O)Nc2cc(Cl)ccc2C(=O)O)cc1 [ONO-RS-082] | – | – | –
